The structures appear in SMILES notation. Like-named read-outs stand apart in the source and are kept apart here.

Assay type in all cases: binding
One assay deals with T1, TXK (Homo sapiens, UniProt P42681).
T1 construct: purchased DiscoverX (KINOMEscan)
The assay can be described thus: kinome scan. The note with it: 10 µM.

The target of assay [1] is T2, RSK4(Kin.Dom.1-N-terminal) (Homo sapiens, UniProt Q9UK32).
T2 construct: RSK4(Kin.Dom.1-N-terminal); purchased DiscoverX (KINOMEscan)
The assay can be described thus: kinome scan. The note with it: 10 µM.

Assay [2] concerns the target T3, TYK2(JH1domain-catalytic) (Homo sapiens, UniProt P29597).
T3 construct: TYK2(JH1domain-catalytic); purchased DiscoverX (KINOMEscan)
Nature of the assay: kinome scan. The note with it: 10 µM.

The target of the next assay is T4, PIP4K2C (Homo sapiens, UniProt Q8TBX8).
T4 construct: T7 phage fusion (kinase-tagged phage); purchased DiscoverX; host or cells: BL21-derived E. coli (T7 phage)
Nature of the assay: Kd select analysis (DiscoverX). The procedure: (§1) Hits are identified by an ultra-sensitive quantitative PCR detecting the specific DNA tag linked to each kinase (Supplementary Figure S2). The drug is used at a concentration of 10 µM and results are expressed as the percentage of signal (kinase PCR detection) with respect to DMSO control conditions. Thirteen hits were identified, with a signal reduction ranging from 0 to 27% (Table 3). Full raw data are presented in Supplementary Table S4. Interactions between 0 and 20% of reduction were considered to be the most significant ones. […] A sub-micromolar affinity (Kd<1 µM) was only seen with two PIKs (PIP4K2C, PI4KB) and GAK (Table 4). Inhibitions curves from these compounds are shown in Supplementary Figure S3.

The next assay addresses T5, ANKK1 (Homo sapiens, UniProt Q8NFD2).
T5 construct: purchased DiscoverX (KINOMEscan)
T5 sequence (Q8NFD2 1-765): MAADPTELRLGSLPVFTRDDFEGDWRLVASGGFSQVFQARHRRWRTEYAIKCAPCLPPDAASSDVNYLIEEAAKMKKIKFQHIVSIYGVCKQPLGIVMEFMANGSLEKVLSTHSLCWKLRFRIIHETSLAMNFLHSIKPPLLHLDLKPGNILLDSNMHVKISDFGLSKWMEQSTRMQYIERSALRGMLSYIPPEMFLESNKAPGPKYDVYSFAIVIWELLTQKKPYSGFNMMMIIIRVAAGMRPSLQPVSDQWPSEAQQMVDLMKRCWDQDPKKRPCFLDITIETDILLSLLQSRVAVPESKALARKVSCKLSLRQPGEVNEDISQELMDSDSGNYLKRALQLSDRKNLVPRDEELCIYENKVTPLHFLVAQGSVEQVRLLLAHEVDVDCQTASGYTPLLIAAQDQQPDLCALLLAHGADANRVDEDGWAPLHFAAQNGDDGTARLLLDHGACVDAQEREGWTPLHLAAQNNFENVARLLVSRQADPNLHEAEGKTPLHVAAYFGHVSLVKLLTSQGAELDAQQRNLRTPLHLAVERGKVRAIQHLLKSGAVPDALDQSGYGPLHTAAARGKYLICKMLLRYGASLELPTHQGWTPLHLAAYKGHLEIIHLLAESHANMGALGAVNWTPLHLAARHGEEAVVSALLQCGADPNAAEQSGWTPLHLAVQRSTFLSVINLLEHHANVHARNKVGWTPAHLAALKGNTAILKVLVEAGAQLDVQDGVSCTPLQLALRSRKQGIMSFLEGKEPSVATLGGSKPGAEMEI
Nature of the assay: Kd select analysis (DiscoverX). The procedure: as §1

For a further assay, the target named is T6, MARK2 (Homo sapiens, UniProt Q7KZI7).
T6 construct: purchased DiscoverX (KINOMEscan)
Nature of the assay: kinome scan. The note with it: 10 µM.

The target in assay [3] is T7, TYK2(JH2domain-pseudokinase) (Homo sapiens, UniProt P29597).
T7 construct: TYK2(JH2domain-pseudokinase); purchased DiscoverX (KINOMEscan)
The assay can be described thus: kinome scan.

The next assay addresses T8, GAK (Homo sapiens, UniProt O14976).
T8 construct: T7 phage fusion (kinase-tagged phage); purchased DiscoverX; host or cells: BL21-derived E. coli (T7 phage)
T8 sequence (O14976 1-1311): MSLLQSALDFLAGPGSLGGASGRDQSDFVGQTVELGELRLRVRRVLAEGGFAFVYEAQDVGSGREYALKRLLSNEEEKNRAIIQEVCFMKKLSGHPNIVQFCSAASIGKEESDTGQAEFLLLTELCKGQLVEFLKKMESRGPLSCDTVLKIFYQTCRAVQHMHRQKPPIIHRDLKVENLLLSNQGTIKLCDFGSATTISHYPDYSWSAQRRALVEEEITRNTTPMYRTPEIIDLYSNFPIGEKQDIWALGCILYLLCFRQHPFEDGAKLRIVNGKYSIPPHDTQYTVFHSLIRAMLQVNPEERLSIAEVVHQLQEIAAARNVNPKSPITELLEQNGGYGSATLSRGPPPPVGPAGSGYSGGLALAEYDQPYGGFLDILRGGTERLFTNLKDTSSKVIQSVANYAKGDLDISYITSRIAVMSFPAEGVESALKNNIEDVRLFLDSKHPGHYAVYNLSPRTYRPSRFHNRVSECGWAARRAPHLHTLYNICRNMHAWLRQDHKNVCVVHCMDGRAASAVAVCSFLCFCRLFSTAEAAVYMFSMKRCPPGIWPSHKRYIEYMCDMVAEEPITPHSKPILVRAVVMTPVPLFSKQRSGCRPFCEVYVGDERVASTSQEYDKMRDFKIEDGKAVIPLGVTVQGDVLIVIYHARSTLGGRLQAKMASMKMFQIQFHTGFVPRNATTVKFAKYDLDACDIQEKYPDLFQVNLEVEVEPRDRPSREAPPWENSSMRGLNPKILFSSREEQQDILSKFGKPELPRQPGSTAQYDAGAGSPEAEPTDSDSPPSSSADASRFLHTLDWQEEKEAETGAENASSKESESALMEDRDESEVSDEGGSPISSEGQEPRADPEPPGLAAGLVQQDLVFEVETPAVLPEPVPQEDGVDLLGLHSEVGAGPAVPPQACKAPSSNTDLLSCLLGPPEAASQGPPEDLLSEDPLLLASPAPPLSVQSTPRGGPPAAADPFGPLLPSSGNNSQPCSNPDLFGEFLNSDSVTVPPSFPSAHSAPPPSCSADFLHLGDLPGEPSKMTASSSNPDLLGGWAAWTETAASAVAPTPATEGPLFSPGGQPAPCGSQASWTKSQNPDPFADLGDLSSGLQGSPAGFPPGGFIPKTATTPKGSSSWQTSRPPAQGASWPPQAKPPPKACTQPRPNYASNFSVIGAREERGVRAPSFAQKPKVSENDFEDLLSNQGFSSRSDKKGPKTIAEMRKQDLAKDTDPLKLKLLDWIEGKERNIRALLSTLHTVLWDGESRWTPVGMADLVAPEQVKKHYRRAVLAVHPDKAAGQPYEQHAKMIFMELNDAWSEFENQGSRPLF
Nature of the assay: kinome scan.

The next assay has as its target T9, SIK2 (Homo sapiens, UniProt Q9H0K1).
T9 construct: purchased DiscoverX (KINOMEscan)
The assay can be described thus: kinome scan. The note with it: 10 µM.

T4 sequence (Q8TBX8 whole entry, the tested form may be a part): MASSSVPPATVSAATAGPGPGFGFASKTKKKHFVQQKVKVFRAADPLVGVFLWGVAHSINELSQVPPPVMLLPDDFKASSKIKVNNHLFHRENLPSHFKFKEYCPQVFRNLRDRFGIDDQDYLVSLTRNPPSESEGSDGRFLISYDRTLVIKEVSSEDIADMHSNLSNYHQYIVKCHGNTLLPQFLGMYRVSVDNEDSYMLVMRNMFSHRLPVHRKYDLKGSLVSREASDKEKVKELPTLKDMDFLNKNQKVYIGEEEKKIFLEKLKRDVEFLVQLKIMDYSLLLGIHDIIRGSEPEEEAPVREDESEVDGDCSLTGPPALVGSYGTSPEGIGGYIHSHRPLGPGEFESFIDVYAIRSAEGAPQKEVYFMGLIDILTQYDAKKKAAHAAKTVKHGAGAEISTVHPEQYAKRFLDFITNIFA
T7 sequence (P29597 556-888 limits assumed): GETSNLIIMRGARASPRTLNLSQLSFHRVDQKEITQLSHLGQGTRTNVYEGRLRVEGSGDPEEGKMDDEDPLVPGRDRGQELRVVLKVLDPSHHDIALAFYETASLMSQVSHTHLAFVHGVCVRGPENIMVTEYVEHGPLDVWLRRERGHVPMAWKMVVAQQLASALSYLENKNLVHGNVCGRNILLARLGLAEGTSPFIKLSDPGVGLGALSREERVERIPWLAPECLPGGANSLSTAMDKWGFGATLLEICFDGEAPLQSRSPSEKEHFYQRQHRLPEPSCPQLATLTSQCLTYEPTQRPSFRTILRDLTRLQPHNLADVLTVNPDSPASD
T1 sequence (P42681 whole entry): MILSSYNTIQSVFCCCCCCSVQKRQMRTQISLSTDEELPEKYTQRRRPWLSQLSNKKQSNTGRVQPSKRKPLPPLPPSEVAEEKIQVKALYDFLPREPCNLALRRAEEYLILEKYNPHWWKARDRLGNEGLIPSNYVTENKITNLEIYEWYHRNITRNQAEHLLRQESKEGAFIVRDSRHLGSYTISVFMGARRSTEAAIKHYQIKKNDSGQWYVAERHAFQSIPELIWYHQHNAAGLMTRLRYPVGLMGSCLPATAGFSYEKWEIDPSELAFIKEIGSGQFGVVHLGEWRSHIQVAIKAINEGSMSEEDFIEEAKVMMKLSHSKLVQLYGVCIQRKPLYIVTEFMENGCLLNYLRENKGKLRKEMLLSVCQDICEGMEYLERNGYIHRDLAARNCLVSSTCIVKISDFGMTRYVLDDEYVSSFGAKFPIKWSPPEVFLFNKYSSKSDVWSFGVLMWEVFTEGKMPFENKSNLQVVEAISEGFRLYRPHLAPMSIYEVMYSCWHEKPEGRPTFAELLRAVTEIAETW
T6 sequence (Q7KZI7 whole entry): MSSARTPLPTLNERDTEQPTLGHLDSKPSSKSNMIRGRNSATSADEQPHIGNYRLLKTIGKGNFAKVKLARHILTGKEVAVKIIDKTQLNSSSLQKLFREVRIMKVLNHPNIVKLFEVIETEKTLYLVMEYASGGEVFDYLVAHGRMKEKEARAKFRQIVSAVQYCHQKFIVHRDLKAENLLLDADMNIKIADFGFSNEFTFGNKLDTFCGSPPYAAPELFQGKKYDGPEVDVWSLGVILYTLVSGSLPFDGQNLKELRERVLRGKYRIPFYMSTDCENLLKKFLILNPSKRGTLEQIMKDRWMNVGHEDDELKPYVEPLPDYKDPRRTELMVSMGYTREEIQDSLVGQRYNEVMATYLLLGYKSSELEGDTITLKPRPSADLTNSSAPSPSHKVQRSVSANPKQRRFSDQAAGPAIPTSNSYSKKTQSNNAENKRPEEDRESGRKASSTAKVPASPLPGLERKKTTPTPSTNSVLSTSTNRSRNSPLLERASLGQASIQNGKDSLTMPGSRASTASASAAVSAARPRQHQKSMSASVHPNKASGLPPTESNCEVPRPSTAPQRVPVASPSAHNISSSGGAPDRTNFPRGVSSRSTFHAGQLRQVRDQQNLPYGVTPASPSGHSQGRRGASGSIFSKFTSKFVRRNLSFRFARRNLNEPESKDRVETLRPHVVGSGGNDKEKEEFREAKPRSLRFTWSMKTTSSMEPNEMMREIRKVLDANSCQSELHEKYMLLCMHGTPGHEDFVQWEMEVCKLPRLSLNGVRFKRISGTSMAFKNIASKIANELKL
T9 sequence (Q9H0K1 whole entry): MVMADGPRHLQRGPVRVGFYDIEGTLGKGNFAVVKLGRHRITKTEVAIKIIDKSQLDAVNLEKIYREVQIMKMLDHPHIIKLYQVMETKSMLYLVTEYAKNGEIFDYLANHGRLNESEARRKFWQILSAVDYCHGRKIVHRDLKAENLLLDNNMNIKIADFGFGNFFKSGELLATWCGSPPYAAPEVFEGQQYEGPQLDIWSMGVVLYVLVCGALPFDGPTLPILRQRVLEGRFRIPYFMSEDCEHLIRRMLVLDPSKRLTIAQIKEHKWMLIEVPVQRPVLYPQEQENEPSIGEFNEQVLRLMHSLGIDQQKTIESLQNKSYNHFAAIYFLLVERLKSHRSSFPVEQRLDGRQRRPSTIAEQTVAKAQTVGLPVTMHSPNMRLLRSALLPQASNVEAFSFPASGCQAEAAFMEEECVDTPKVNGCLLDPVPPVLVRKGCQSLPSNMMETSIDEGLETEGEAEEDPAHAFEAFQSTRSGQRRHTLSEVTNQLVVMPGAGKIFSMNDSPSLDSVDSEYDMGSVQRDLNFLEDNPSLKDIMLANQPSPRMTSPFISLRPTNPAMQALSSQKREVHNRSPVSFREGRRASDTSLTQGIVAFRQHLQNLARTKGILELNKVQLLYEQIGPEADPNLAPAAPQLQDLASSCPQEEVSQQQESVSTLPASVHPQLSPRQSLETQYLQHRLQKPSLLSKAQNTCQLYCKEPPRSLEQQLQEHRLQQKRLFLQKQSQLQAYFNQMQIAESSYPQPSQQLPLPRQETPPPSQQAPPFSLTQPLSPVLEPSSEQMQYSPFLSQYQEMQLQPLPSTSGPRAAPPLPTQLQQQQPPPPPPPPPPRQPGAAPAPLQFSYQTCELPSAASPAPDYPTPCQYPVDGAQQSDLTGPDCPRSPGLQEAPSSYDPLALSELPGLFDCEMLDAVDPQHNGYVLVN
T2 sequence (Q9UK32 73-330 limits assumed): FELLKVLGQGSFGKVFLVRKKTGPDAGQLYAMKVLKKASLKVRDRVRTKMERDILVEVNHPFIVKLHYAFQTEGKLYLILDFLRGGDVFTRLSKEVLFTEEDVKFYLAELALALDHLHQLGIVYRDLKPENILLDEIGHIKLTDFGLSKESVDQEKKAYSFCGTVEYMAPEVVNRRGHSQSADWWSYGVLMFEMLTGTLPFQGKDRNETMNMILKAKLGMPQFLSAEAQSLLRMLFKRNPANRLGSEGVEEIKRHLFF
T3 sequence (P29597 888-1187 limits assumed): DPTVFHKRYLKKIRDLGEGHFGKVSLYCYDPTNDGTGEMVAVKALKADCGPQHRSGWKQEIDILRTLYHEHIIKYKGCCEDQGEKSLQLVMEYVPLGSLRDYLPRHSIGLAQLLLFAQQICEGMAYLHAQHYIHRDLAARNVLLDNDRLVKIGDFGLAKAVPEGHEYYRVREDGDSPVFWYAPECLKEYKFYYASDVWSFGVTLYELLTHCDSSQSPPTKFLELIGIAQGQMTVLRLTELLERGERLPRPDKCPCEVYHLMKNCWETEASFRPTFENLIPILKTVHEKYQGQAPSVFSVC

For the compound `Nc1ccc(N=Nc2ccccc2)c(N)n1` [phenazopyridine, 2,6-diamino-3-(phenylazo)pyridine], the “remaining binding (% of control)” value at TXK was determined as 100; in [2] it was 100; in [3] (TYK2(JH2domain-pseudokinase), 10 µM) it was 16; on GAK (10 µM), 16. Further, the kinase inhibition in [1] is given as 86; on MARK2, 100; at SIK2 it was 92. The Kd at PIP4K2C (Phenazopyridine Kd (nM)) is 540 nM; on PIP4K2C (sub-micromolar affinity, read-out: Kd) it was below 1000 nM; at ANKK1, 21000 nM. Moreover, the remaining binding at 10 µM in assay [3] (TYK2 as printed (Table S4: JH2domain-pseudokinase), read-out: % Of control) came to 16%; at GAK (read-out: % Of control) it was 16%.

A word on the Kd: it is the equilibrium constant for the complex coming apart.
